Earlier results in patent US10047050B2, “3,4-di-substituted pyridine compound, methods of using and compositions comprising the same” (ARDEA BIOSCIENCES, INC., priority 2011, dated 2018).

Details: cited from earlier work
[1] = individuals treated with probenecid

Structure (SMILES)	individuals who develop intolerance [1]	individuals who fail to achieve reduction of serum uric acid levels <6 mg/dL [1]	incidence of side effects (of all individuals treated with the drug) [%]
CCCN(CCC)S(=O)(=O)c1ccc(C(=O)O)cc1 [probenecid]	one-third	25-50%	–
Oc1ncnc2[nH]ncc12 [Allopurinol, allopurinol]	–	–	20
